Active and inactive are the calls of the source. The rule behind the calls is not given here.
How the values were obtained:
[1] = Half life in C57BL/6J mouse at 10 mg/kg, iv by HPLC analysis; format: ADME, organism-based; conditions: in vivo
[2] = MRT in C57BL/6J mouse at 20 mg/kg, po by HPLC analysis; format: ADME, organism-based; conditions: in vivo
[3] = species on record: Rattus norvegicus; test: Antifibrotic activity against TGFbeta1 stimulated rat LTC-14 cells assessed as inhibition of collagen 1 level at 500 nM after 24 hrs by Western blot; format: functional
[4] = species on record: Rattus norvegicus; test: Antifibrotic activity against TGFbeta1 stimulated rat LTC-14 cells assessed as inhibition of collagen 1 alpha 1 mRNA expression at 500 nM after 24 hrs by RT-qPCR analysis; format: functional
[5] = AUC (0 to infinity) in C57BL/6J mouse at 10 mg/kg, iv by HPLC analysis; format: ADME, organism-based; design: dose 10 mg/kg, time infinity, route intravenous; conditions: in vivo
[6] = Half life in C57BL/6J mouse at 20 mg/kg, po by HPLC analysis; format: ADME, organism-based; conditions: in vivo
[7] = MRT in C57BL/6J mouse at 10 mg/kg, iv by HPLC analysis; format: ADME, organism-based; conditions: in vivo
[8] = biological target: T1, Vitamin D3 receptor (Homo sapiens) (UniProt P11473); test: Transactivation of VDR (unknown origin) expressed in HEK293 cells harboring pENTER-CMV-human RXRalpha after 24 hrs by luciferase reporter gene assay; format: cell-based
T1 sequence (whole entry): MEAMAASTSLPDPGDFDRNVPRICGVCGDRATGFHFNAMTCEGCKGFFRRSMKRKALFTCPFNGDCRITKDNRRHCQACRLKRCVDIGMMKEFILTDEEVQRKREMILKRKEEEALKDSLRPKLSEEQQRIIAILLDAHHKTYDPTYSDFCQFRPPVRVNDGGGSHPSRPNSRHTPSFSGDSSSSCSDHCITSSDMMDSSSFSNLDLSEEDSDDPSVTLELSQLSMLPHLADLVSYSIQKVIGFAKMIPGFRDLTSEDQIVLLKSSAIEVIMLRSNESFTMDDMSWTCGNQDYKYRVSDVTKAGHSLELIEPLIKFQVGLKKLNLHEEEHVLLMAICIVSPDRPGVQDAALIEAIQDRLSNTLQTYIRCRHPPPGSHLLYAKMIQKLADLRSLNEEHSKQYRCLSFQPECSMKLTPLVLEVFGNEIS

[9] = Clearance in C57BL/6J mouse at 20 mg/kg, po by HPLC analysis; format: ADME, organism-based; conditions: in vivo
[10] = AUC (0 to infinity) in C57BL/6J mouse at 20 mg/kg, po by HPLC analysis; format: ADME, organism-based; design: dose 20 mg/kg, route oral, time infinity; conditions: in vivo
[11] = test system: Mus musculus; test: Antifibrotic activity in caerulein induced chronic pancreatic C57BL/6J mouse model assessed as inhibition of alpha-SMA expression in interstitial area of pancreas tissue at 0.5 mg/kg, po administered via gavage treated for 5 times per week measured after 3 days by immunohistochemistry analysis; format: functional, organism-based
[12] = Oral bioavailability in C57BL/6J mouse at 20 mg/kg by HPLC analysis; format: ADME, organism-based; conditions: in vivo
[13] = Clearance in C57BL/6J mouse at 10 mg/kg, iv by HPLC analysis; format: ADME, organism-based; conditions: in vivo
[14] = test system: Mus musculus; test: Antifibrotic activity in caerulein induced chronic pancreatic C57BL/6J mouse model assessed as inhibition of collagen deposition at 0.5 mg/kg, po administered via gavage treated for 5 times per week measured after 3 days by Masson's trichrome staining based histopathological analysis; format: functional, organism-based
[15] = (§1) Antifibrotic activity against TGFbeta1 stimulated rat LTC-14 cells assessed as inhibition of collagen 1 synthesis at 0.5 uM after 24 hrs by ELISA relative to calcipotriol; format: functional; conditions: LTC-14, 24 h
[16] = species on record: Rattus norvegicus; test: Antifibrotic activity against TGFbeta1 stimulated rat LTC-14 cells assessed as inhibition of alpha-SMA level at 500 nM after 24 hrs by Western blot; format: functional
[17] = test system: Mus musculus; test: Antifibrotic activity in caerulein induced chronic pancreatic C57BL/6J mouse model assessed as inhibition of pancreas lesions at 0.5 mg/kg, po administered via gavage treated for 5 times per week measured after 3 days by hematoxylin and eosin staining based histopathological analysis; format: functional, organism-based
[18] = test system: Mus musculus; test: Toxicity in caerulein induced chronic pancreatic C57BL/6J mouse model assessed as change in body weight at 0.5 mg/kg, po administered via gavage treated for 5 times per week measured after 3 days; format: organism-based; conditions: in vivo, 72 h
[19] = species on record: Rattus norvegicus; test: Antifibrotic activity against TGFbeta1 stimulated rat LTC-14 cells assessed as inhibition of alpha-SMA mRNA expression at 500 nM after 24 hrs by RT-qPCR analysis; format: functional
[20] = test system: Mus musculus; test: Toxicity in caerulein induced chronic pancreatic C57BL/6J mouse model assessed as change in serum calcium levels at 0.5 mg/kg, po administered via gavage treated for 5 times per week measured after 3 days; format: organism-based; conditions: in vivo, 72 h
[21] = biological target: T1, Vitamin D3 receptor (Homo sapiens); test: Transactivation of VDR (unknown origin) expressed in HEK293 cells harboring pENTER-CMV-human RXRalpha at 10^-8M to 10^-6M after 24 hrs by luciferase reporter gene assay; format: cell-based
[22] = test system: Mus musculus; test: Toxicity in caerulein induced chronic pancreatic C57BL/6J mouse model assessed as reduction in body weight at 0.5 mg/kg, po administered via gavage treated for 5 times per week measured after 3 days; format: organism-based; conditions: in vivo, 72 h
[23] = test system: Mus musculus; test: Toxicity in caerulein induced chronic pancreatic C57BL/6J mouse model assessed as serum calcium levels at 0.5 mg/kg, po administered via gavage treated for 5 times per week measured after 3 days (reference value: 0.25 umol/ml); format: organism-based; conditions: in vivo, 72 h
[24] = species on record: Rattus norvegicus; test: as §1; format: functional

SMILES	inhibition [3]	inhibition at 0.5 µM [15] [%]	inhibition [16]	inhibition [24]	also measured
CCC(CC)(c1ccc(OCCCO)c(C)c1)c1ccc(OCC(O)C(C)(C)C)c(OCC(O)C(C)(C)C)c1 (stereo not drawn)	Active	172	Active	–	half-life [1]: 160 min; MRT [2]: 6.59 h; inhibition [4]: Active; AUC(0-inf) [5]: 32600 ng·h/mL; half-life [6]: 247 min; MRT [7]: 4.65 h; Activity [8]: Dose-dependent effect; CL/F [9]: 20.2 mL/min; AUC(0-inf) [10]: 20600 ng·h/mL; inhibition [11]: Active; bioavailability [12]: 31.6%; clearance [13]: 5.17 mL/min; inhibition [14]: Active; inhibition [17]: Active; Activity [18]: Non-Toxic; inhibition [19]: Active; Activity [20]: Non-Toxic
CCC(CC)(c1ccc(OS(=O)(=O)c2ccc(C)cc2)c(C)c1)c1ccc(OCC(=O)C(C)(C)C)c(OCC(=O)C(C)(C)C)c1	Active	85	Active	–	–
C=C1/C(=C\C=C2/CCC[C@]3(C)[C@@H]([C@H](C)/C=C/[C@@H](O)C4CC4)CC[C@@H]23)C[C@@H](O)C[C@@H]1O [CALCIPOTRIENE]	Active	100	Active	–	inhibition [4]: Active; Activity [21]: Active; Activity [22]: Toxic; Activity [23]: 0.37 µmol/mL; inhibition [19]: Active
CCC(CC)(c1ccc(OCC(O)CO)c(C)c1)c1ccc(OCC(O)C(C)(C)C)c(C)c1 (stereo not drawn) [LG-190178]	Active	97	Active	–	inhibition [4]: Active; Activity [21]: Active; inhibition [19]: Active
CCC(CC)(c1ccc(OS(=O)(=O)c2ccccc2)c(C)c1)c1ccc(OCC(O)C(C)(C)C)c(OCC(O)C(C)(C)C)c1 (stereo not drawn)	–	23	–	–	–
CCC(CC)(c1ccc(OCCCCCCO)c(C)c1)c1ccc(OCC(O)C(C)(C)C)c(OCC(O)C(C)(C)C)c1 (stereo not drawn)	–	74	–	–	–
CCC(CC)(c1ccc(OS(=O)(=O)c2ccc(C)cc2)c(C)c1)c1ccc(OCC(O)C(C)(C)C)c(OCC(O)C(C)(C)C)c1 (stereo not drawn)	–	137	–	–	–
CCC(CC)(c1ccc(OCCCCCCC(=O)O)c(C)c1)c1ccc(OCC(O)C(C)(C)C)c(OCC(O)C(C)(C)C)c1 (stereo not drawn)	–	–	–	inactive	–
CCC(CC)(c1ccc(OCC(=O)O)c(C)c1)c1ccc(OCC(O)C(C)(C)C)c(OCC(O)C(C)(C)C)c1 (stereo not drawn)	–	–	–	inactive	–
CCC(CC)(c1ccc(OCCCCCO)c(C)c1)c1ccc(OCC(O)C(C)(C)C)c(OCC(O)C(C)(C)C)c1 (stereo not drawn)	–	133	–	–	–
CCC(CC)(c1ccc(OCCCCCCCO)c(C)c1)c1ccc(OCC(O)C(C)(C)C)c(OCC(O)C(C)(C)C)c1 (stereo not drawn)	–	–	–	inactive	–
CCC(CC)(c1ccc(OCCCCC(=O)O)c(C)c1)c1ccc(OCC(O)C(C)(C)C)c(OCC(O)C(C)(C)C)c1 (stereo not drawn)	–	–	–	inactive	–
CCC(CC)(c1ccc(OS(=O)(=O)c2ccc([N+](=O)[O-])cc2)c(C)c1)c1ccc(OCC(O)C(C)(C)C)c(OCC(O)C(C)(C)C)c1 (stereo not drawn)	–	82	–	–	–
CCC(CC)(c1ccc(OCCCCO)c(C)c1)c1ccc(OCC(O)C(C)(C)C)c(OCC(O)C(C)(C)C)c1 (stereo not drawn)	Active	189	Active	–	Activity [8]: Dose-dependent effect
CCC(CC)(c1ccc(OCC(O)CO)c(C)c1)c1ccc(OCC(O)C(C)(C)C)c(OCC(O)C(C)(C)C)c1 (stereo not drawn)	–	147	–	–	Activity [8]: Dose-dependent effect
CCC(CC)(c1ccc(OS(C)(=O)=O)c(C)c1)c1ccc(OCC(O)C(C)(C)C)c(OCC(O)C(C)(C)C)c1 (stereo not drawn)	–	8	–	–	–
CCC(CC)(c1ccc(OCCCC(=O)O)c(C)c1)c1ccc(OCC(O)C(C)(C)C)c(OCC(O)C(C)(C)C)c1 (stereo not drawn)	–	–	–	inactive	–
CCC(CC)(c1ccc(OCCCCCC(=O)O)c(C)c1)c1ccc(OCC(O)C(C)(C)C)c(OCC(O)C(C)(C)C)c1 (stereo not drawn)	–	–	–	inactive	–
CCC(CC)(c1ccc(OCCO)c(C)c1)c1ccc(OCC(O)C(C)(C)C)c(OCC(O)C(C)(C)C)c1 (stereo not drawn)	Active	128	Active	–	–
